Source: patent US10975056B2 (GlaxoSmithKline Intellectual Property Development Limited, priority 2016, dated 2021)

Assays:
[1] = tested on: erythroid progenitor cells (EPCs); assay: Fetal hemoglobin (HbF) ELISA in day 7 erythroid progenitor cells; format: cell-based, human; settings: Homo sapiens, Erythroid progenitor cell, HbF ELISA, day 7 EPCs, 5 days; read-out: EPC ELISA (pEC50 category) (converted);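 note: for fetal hemoglobin induction normalized to vehicle-treated cells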
Summary of the method: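 HbF induction was read by anti-HbF sandwich ELISA (HRP/TMB, OD450) on lysates and normalized to vehicle-treated cells. Cells were day 7 erythroid progenitors derived from human bone marrow CD34+ cells, seeded at 1,000/well with 3 U/mL rhEPO. Compound was given for 5 days at 37 °C at final concentrations […].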

DNMT1 = DNMT1 (Homo sapiens, UniProt P26358); assay: DNMT1 biochemical activity, breaklight assay and/or SPA assay; settings: for DNMT1 BioChemical (pIC50 category): binned activity in either the breaklight or the SPA assay
DNMT1, sequence (P26358 whole entry, looked up): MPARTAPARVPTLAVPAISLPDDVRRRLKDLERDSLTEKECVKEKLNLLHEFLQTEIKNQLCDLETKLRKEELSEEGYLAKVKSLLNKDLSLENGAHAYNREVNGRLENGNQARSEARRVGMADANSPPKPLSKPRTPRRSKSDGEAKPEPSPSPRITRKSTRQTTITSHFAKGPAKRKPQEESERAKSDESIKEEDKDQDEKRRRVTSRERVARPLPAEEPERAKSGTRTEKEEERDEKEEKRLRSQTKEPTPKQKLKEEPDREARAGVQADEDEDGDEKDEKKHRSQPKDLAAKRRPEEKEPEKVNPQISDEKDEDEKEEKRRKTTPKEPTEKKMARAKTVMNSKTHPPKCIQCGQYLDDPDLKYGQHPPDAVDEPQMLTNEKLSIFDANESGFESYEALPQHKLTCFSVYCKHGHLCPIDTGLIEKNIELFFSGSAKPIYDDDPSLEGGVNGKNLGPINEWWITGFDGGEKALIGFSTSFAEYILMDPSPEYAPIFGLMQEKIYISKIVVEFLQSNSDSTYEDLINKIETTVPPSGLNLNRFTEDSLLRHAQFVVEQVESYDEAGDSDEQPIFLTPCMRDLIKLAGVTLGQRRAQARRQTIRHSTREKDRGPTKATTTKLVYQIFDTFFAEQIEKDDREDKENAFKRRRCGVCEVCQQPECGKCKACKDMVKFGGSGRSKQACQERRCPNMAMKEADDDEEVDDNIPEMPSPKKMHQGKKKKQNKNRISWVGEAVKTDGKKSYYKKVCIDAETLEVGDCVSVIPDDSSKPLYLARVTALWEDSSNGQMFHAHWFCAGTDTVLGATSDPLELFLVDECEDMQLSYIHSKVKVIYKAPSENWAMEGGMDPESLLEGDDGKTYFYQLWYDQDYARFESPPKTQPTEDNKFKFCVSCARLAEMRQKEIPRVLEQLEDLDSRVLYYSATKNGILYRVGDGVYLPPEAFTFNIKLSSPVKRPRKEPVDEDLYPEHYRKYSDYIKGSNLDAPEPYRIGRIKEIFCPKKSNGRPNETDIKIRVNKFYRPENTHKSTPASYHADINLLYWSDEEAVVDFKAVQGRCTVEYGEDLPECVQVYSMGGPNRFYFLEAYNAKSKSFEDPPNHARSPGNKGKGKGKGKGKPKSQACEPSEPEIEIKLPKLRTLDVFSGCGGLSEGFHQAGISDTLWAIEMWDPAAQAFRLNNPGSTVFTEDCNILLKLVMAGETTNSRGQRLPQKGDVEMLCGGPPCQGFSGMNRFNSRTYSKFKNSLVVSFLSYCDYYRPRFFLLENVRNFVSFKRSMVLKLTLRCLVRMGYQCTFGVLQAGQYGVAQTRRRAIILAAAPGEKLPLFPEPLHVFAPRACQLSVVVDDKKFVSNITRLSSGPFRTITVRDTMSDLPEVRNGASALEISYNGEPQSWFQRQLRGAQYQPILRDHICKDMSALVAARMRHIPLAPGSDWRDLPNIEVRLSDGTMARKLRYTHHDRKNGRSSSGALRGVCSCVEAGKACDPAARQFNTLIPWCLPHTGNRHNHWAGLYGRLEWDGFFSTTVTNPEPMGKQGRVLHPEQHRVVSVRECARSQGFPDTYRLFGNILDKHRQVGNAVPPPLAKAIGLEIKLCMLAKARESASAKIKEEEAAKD

| SMILES | EC50 [1] | DNMT1 BioChemical (pIC50 category) (DNMT1) | average pIC50 against DNMT1 (DNMT1; breaklight assay and/or SPA assay, repeated experimental runs) | IC50 (DNMT1; breaklight assay and/or SPA assay, repeated experimental runs, read-out: average pIC50 against DNMT1 (converted)) |
| --- | --- | --- | --- | --- |
| CCc1c(C#N)c(SC(C(N)=O)c2ccccc2)nc(N2CCC(NCC3(C)COC3)CC2)c1C#N (centres unmarked) [Example 449, 2-((3,5-dicyano-4-ethyl-6-(4-(((3-methyloxetan-3-yl)methyl)amino)piperidin-1-yl)pyridin-2-yl)thio)-2-phenylacetamide] | < 316 nM | D (Category D: ≥6.5) | – | – |
| CCc1c(C#N)c(SC(C(N)=O)c2ccccc2)nc(N2CCC(NCc3ccccc3)CC2)c1C#N (centres unmarked) [Example 455, 2-(6-(4-(benzylamino)piperidin-1-yl)-3,5-dicyano-4-ethylpyridin-2-ylthio)-2-phenylacetamide] | < 316 nM | D (Category D: ≥6.5) | – | – |
| CCc1c(C#N)c(SC(C(N)=O)c2ccccc2)nc(N2CCC(NCc3cccc(OC)n3)CC2)c1C#N (centres unmarked) [Example 456, 2-((3,5-dicyano-4-ethyl-6-(4-(((6-methoxypyridin-2-yl)methyl)amino)piperidin-1-yl)pyridin-2-yl)thio)-2-phenylacetamide] | < 316 nM | D (Category D: ≥6.5) | – | – |
| CCc1c(C#N)c(SCc2ccc(N(C)S(C)(=O)=O)cc2)nc(N(C)CCNCC(C)(C)C)c1C#N [Example 458, N-(4-(((3,5-dicyano-4-ethyl-6-(methyl(2-(neopentylamino)ethyl)amino)pyridin-2-yl)thio)methyl)phenyl)-N-methylmethanesulfonamide] | < 316 nM | D (Category D: ≥6.5) | – | – |
| CCc1c(C#N)c(SC(C(N)=O)c2ccccc2)nc(N(C)CCN2CCC[C@H]2C)c1C#N (stereo partly drawn) [Example 459, 2-((3,5-dicyano-4-ethyl-6-(methyl(2-((R)-2-methylpyrrolidin-1-yl)ethyl)amino)pyridin-2-yl)thio)-2-phenylacetamide] | < 316 nM | D (Category D: ≥6.5) | – | – |
| CCc1c(C#N)c(SCc2ccc(N(C)S(C)(=O)=O)cc2)nc(N(C)CCN(C)CCOC)c1C#N [Example 461] | < 316 nM | D (Category D: ≥6.5) | – | – |
| CCc1c(C#N)c(SC(C(N)=O)c2ccccc2)nc(N(C)CCN2CCC[C@@H]2C)c1C#N (stereo partly drawn) [Example 463, 2-((3,5-dicyano-4-ethyl-6-(methyl(2-((S)-2-methylpyrrolidin-1-yl)ethyl)amino)pyridin-2-yl)thio)-2-phenylacetamide] | < 316 nM | D (Category D: ≥6.5) | – | – |
| CCc1c(C#N)c(SC(C(N)=O)c2ccccc2)nc(N2CCC(NCc3ccc(OC)nc3)CC2)c1C#N (centres unmarked) [Example 467, 2-((3,5-dicyano-4-ethyl-6-(4-(((6-methoxypyridin-3-yl)methyl)amino)piperidin-1-yl)pyridin-2-yl)thio)-2-phenylacetamide] | < 316 nM | D (Category D: ≥6.5) | – | – |
| CCNCCN(C)c1nc(SC(C(N)=O)c2ccccc2)c(C#N)c(CC)c1C#N (centres unmarked) [Example 468, 2-(3,5-dicyano-4-ethyl-6-((2-(ethylamino)ethyl)(methyl)amino)pyridin-2-ylthio)-2-phenylacetamide] | < 316 nM | D (Category D: ≥6.5) | – | – |
| CCc1c(C#N)c(SC(C(N)=O)c2ccccc2)nc(N2CCC(CN3CCN(C)CC3)CC2)c1C#N (centres unmarked) [Example 469, 2-((3,5-dicyano-4-ethyl-6-(4-((4-methylpiperazin-1-yl)methyl)piperidin-1-yl)pyridin-2-yl)thio)-2-phenylacetamide] | < 316 nM | D (Category D: ≥6.5) | – | – |
| CCc1c(C#N)c(SC(C(N)=O)c2ccccc2)nc(N(C)CCNC)c1C#N (centres unmarked) [Example 470, 2-((3,5-dicyano-4-ethyl-6-(methyl(2-(methylamino)ethyl)amino)pyridin-2-yl)thio)-2-phenylacetamide] | < 316 nM | D (Category D: ≥6.5) | – | – |
| CCc1c(C#N)c(SCc2ccc(N(C)S(C)(=O)=O)cc2)nc(N(C)CCNC)c1C#N [Example 471, N-(4-(((3,5-dicyano-4-ethyl-6-(methyl(2-(methylamino)ethyl)amino)pyridin-2-yl)thio)methyl)phenyl)-N-methylmethanesulfonamide] | < 316 nM | D (Category D: ≥6.5) | – | – |
| CCc1c(C#N)c(SC(C(N)=O)c2ccccc2)nc(N2CCC(NCc3ccc(F)cc3)CC2)c1C#N (centres unmarked) [Example 474, 2-((3,5-dicyano-4-ethyl-6-(4-((4-fluorobenzyl)amino)piperidin-1-yl)pyridin-2-yl)thio)-2-phenylacetamide] | < 316 nM | D (Category D: ≥6.5) | – | – |
| CCc1c(C#N)c(SC(C(N)=O)c2ccccc2)nc(N(C)CCN2CCC[C@H]2CO)c1C#N (stereo partly drawn) [Example 475, 2-((3,5-dicyano-4-ethyl-6-((2-((S)-2-(hydroxymethyl)pyrrolidin-1-yl)ethyl)(methyl)amino)pyridin-2-yl)thio)-2-phenylacetamide] | < 316 nM | D (Category D: ≥6.5) | – | – |
| CCc1c(C#N)c(SC(C(N)=O)c2ccccc2)nc(N(C)CCN2[C@H](C)CC[C@@H]2C)c1C#N (stereo partly drawn) [Example 476, 2-(3,5-dicyano-6-((2-((2S,5R)-2,5-dimethylpyrrolidin-1-yl)ethyl)(methyl)amino)-4-ethylpyridin-2-ylthio)-2-phenylacetamide] | < 316 nM | D (Category D: ≥6.5) | – | – |
| CCc1c(C#N)c(SC(C(N)=O)c2ccccc2)nc(N(C)CCN2CCCCCC2)c1C#N (centres unmarked) [Example 477, 2-((6-((2-(azepan-1-yl)ethyl)(methyl)amino)-3,5-dicyano-4-ethylpyridin-2-yl)thio)-2-phenylacetamide] | < 316 nM | D (Category D: ≥6.5) | > 6.5 | 100 nM |
| CCc1c(C#N)c(SC(C(N)=O)c2ccccc2)nc(N(C)CCN2CCCCC2)c1C#N (centres unmarked) [Example 478, 2-((3,5-dicyano-4-ethyl-6-(methyl(2-(piperidin-1-yl)ethyl)amino)pyridin-2-yl)thio)-2-phenylacetamide] | < 316 nM | D (Category D: ≥6.5) | – | – |
| CCc1c(C#N)c(SC(C(N)=O)c2ccccc2)nc(N(C)CCN2CCC[C@@H]2CO)c1C#N (stereo partly drawn) [Example 479, 2-((3,5-dicyano-4-ethyl-6-((2-((R)-2-(hydroxymethyl)pyrrolidin-1-yl)ethyl)(methyl)amino)pyridin-2-yl)thio)-2-phenylacetamide] | < 316 nM | D (Category D: ≥6.5) | – | – |

The next lines start with the values.

| EC50 [1] | DNMT1 BioChemical (pIC50 category) (DNMT1) | average pIC50 against DNMT1 (DNMT1; breaklight assay and/or SPA assay, repeated experimental runs) | IC50 (DNMT1; breaklight assay and/or SPA assay, repeated experimental runs, read-out: average pIC50 against DNMT1 (converted)) | SMILES |
| --- | --- | --- | --- | --- |
| < 316 nM | D (Category D: ≥6.5) | – | – | CCc1c(C#N)c(SC(C(N)=O)c2ccccc2)nc(N2CCC(NC3CCC3)CC2)c1C#N (centres unmarked) [Example 448, 2-((3,5-dicyano-6-(4-(cyclobutylamino)piperidin-1-yl)-4-ethylpyridin-2-yl)thio)-2-phenylacetamide] |
| < 316 nM | D (Category D: ≥6.5) | – | – | CCc1c(C#N)c(SC(C(N)=O)c2ccccc2)nc(N2CCC(N3CCN(C)CC3)CC2)c1C#N (centres unmarked) [Example 450, 2-((3,5-dicyano-4-ethyl-6-(4-(4-methylpiperazin-1-yl)piperidin-1-yl)pyridin-2-yl)thio)-2-phenylacetamide] |
| < 316 nM | D (Category D: ≥6.5) | – | – | CCc1c(C#N)c(SC(C(N)=O)c2ccccc2)nc(N2CCC(N3CCC[C@H]3C)CC2)c1C#N (stereo partly drawn) [Example 451, 2-((3,5-dicyano-4-ethyl-6-(4-((R)-2-methylpyrrolidin-1-yl)piperidin-1-yl)pyridin-2-yl)thio)-2-phenylacetamide] |
| < 316 nM | D (Category D: ≥6.5) | – | – | CCc1c(C#N)c(SC(C(N)=O)c2ccccc2)nc(N2CCC(N3[C@H](C)CC[C@@H]3C)CC2)c1C#N (stereo partly drawn) [Example 452, 2-((3,5-dicyano-6-(4-((2R,5S)-2,5-dimethylpyrrolidin-1-yl)piperidin-1-yl)-4-ethylpyridin-2-yl)thio)-2-phenylacetamide] |
| < 316 nM | D (Category D: ≥6.5) | – | – | CCc1c(C#N)c(SC(C(N)=O)c2ccccc2)nc(N2CCC(N3CCC[C@@H]3C)CC2)c1C#N (stereo partly drawn) [Example 453, 2-((3,5-dicyano-4-ethyl-6-(4-((S)-2-methylpyrrolidin-1-yl)piperidin-1-yl)pyridin-2-yl)thio)-2-phenylacetamide] |
| < 316 nM | D (Category D: ≥6.5) | – | – | CCc1c(C#N)c(SC(C(N)=O)c2ccccc2)nc(N2CCC(N(C)C3CCC3)CC2)c1C#N (centres unmarked) [Example 454, 2-((3,5-dicyano-6-(4-(cyclobutyl(methyl)amino)piperidin-1-yl)-4-ethylpyridin-2-yl)thio)-2-phenylacetamide] |
| < 316 nM | D (Category D: ≥6.5) | – | – | CCc1c(C#N)c(SC(C(N)=O)c2ccccc2)nc(N2CCC(N3CC[C@H](F)C3)CC2)c1C#N (stereo partly drawn) [Example 457, 2-((3,5-dicyano-4-ethyl-6-(4-((S)-3-fluoropyrrolidin-1-yl)piperidin-1-yl)pyridin-2-yl)thio)-2-phenylacetamide] |
| < 316 nM | D (Category D: ≥6.5) | – | – | CCc1c(C#N)c(SC(C(N)=O)c2ccccc2)nc(N2CCC(N3CC[C@@H](F)C3)CC2)c1C#N (stereo partly drawn) [Example 460, 2-((3,5-dicyano-4-ethyl-6-(4-((R)-3-fluoropyrrolidin-1-yl)piperidin-1-yl)pyridin-2-yl)thio)-2-phenylacetamide] |
| < 316 nM | D (Category D: ≥6.5) | – | – | CCc1c(C#N)c(SC(C(N)=O)c2ccccc2)nc(N2CCC(N3[C@@H](C)CC[C@@H]3C)CC2)c1C#N (stereo partly drawn) [Example 462, 2-((3,5-dicyano-6-(4-((2S,5S)-2,5-dimethylpyrrolidin-1-yl)piperidin-1-yl)-4-ethylpyridin-2-yl)thio)-2-phenylacetamide] |
